According to patent publication US8003659B2, “Macrocyclic serine protease inhibitors” (Indenix Pharmaceuticals, Inc., priority 2008, dated 2011):
pEC50, pIC50: −log10 of the molar value. Read-outs that look alike come from different tables or passages of the source.

What was measured:
[1] = test system: GS4.1 cells; assay: Cytotoxicity evaluation (Cell Titer 96 AQueous One Solution Cell Proliferation Assay); assay type: cell-based; details: cellular viability
Description: (§1) For cytotoxicity evaluation, GS4.1 cells were treated with compounds as described above and cellular viability was monitored using the Cell Titer 96 AQueous One Solution Cell Proliferation Assay (Promega). CC50 values were determined from the % cytotoxicity versus concentration data with Tecan Magellan software as described above.

[2] = target: T1, HCV NS3-NS4A protease (Hepatitis C virus genotype 1b, UniProt P26663); assay: HCV Protease Assay (SensoLyte 620 HCV Protease Assay kit); assay type: biochemical; details: 1.2 nM HCV NS3-NS4A protease, 60 min at room temperature, 5% DMSO
T1 construct: made in house
T1 sequence (P26663 1027-1208): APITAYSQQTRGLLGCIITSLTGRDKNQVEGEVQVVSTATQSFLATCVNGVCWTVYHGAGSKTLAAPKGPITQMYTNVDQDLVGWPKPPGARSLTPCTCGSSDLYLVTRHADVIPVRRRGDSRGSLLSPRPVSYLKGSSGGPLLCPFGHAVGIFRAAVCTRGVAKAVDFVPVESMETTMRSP
Summary of the method: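 Protease at 1.2 nM, run with the SensoLyte 620 fluorogenic kit under supplier conditions, with compounds at several concentrations in buffer with 5% final DMSO. Reactions ran 60 min at room temperature before fluorescence reading; IC50 from four-parameter sigmoidal fit of percent inhibition.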

[3] = test system: Huh-7 cells containing HCV Con1 subgenomic replicon (GS4.1 cells); assay: HCV Replicon Assay (NS4A ELISA); assay type: cell-based; details: NS4A protein by ELISA
Summary of the method: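 GS4.1 cells (Huh-7 with HCV Con1 subgenomic replicon) given ten 2-fold compound dilutions (top 75 μM) or a single 15 μM dose in 0.5% DMSO for 72 h at 37 °C. NS4A measured by cell ELISA (A492); EC50 from four-parameter sigmoidal fit, single-dose results as % inhibition at 15 μM.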

[4] = rcm bond, 14-membered ring, DCE
[5] = Cytotoxicity evaluation (Cell Titer 96 AQueous One Solution Cell Proliferation Assay); assay type: cell-based; details: human; GS4.1 cells, cellular viability
Description: as §1

[6] = Cytotoxicity (CC50) in the genotype 1b replicon assay; assay type: cell-based; details: human, GS4.1 cells; genotype 1b replicon assay as described in Example 32
Description: as §1
(§2) Compounds were tested in a genotype 1b replicon assay as described in Example 32 and the results are summarized in Table 6, wherein A represents a value smaller than 1 μM, and B represents a value between 1 μM to 10 μM, C represents a value between 10 μM to 75 μM and D represents a value greater than 75 μM.

[7] = test system: HCV genotype 2a infectious virus; assay: HCV genotype 2a infectious virus assay; assay type: cell-based, HCV (strain JFH-1; genotype 2a); details: Hepatitis C virus
Description: Compounds were tested in a HCV genotype 2a infectious virus assay and the results are summarized in Table 7, wherein A represents a value smaller than 1 μM, and B represents a value between 1 μM to 10 μM, C represents a value between 10 μM to 75 μM and D represents a value greater than 75 μM.
The HCV in vitro infection core ELISA assay measures the ability of a test compound to inhibit replication of an infectious HCV (strain JFH-1; genotype 2a) in cell culture. […] We have developed this model for determining the efficacy of antiviral compounds against an infectious virus in vitro using HCV producing cells (HPC), a proprietary Huh-7-derived cell sublineage capable of propagating the JFH-1 HCV virus. The readout of the assay is quantification of HCV core protein by ELISA 5 days post infection with JFH-1 virus and treatment with a test compound.
Ninety-six-well Corning Costar plates were seeded with HPC cells at a density of 3.0×10^3 cells per well in 50 μL of Huh-7 media. Compound stock solutions were made up freshly in Huh-7 media (DMEM (containing glucose, L-glutamine and sodium pyruvate), 10% FBS, 100 IU/mL penicillin, 100 μg/mL streptomycin, 2 mM GlutaMAX, 1% MEM non-essential amino acids) as 2× stock. Seven additional 3-fold drug dilutions were prepared from the 2× stocks in Huh-7 media. At least 4 hours after HPC cells were seeded, the media in the 96-well culture plates was aspirated and 50 μL of each drug dilution and 50 μL of JFH-1 HCV was added to each well.
At 16 hrs post treatment and infection, the virus inoculum was removed by aspiration. The cultures were treated at the same final concentrations of drug diluted to 1× in Huh-7 media to a final volume of 200 μL. Cells were incubated in the presence of drug for 4 additional days at 37° C./5% CO2.
Media was removed from the plates by aspiration. Cells were fixed with 250 μL 1:1 acetone:methanol for 90 seconds, washed once in PBS and then three times with 1×KPL wash solution. The assay plates were then blocked with 150 μL/well 10% FBS-TNE (50 mM Tris-HCl (pH 7.5; Sigma), 100 mM NaCl, 1 mM EDTA with 10% FBS) for 1 hr at room temperature. Cells were washed three times with 1×KPL wash solution and incubated with 100 μL/well anti-hepatitis C core mAb (1 mg/mL stock diluted 1:500 in 10% FBS-TNE) for 2 hours at 37° C. Cells were washed three times with 1×KPL wash solution and incubated with 100 μL/well HRP-goat anti-mouse antibody (diluted 1:2,500 in 10% FBS-TNE) for 1 hr at 37° C.
OPD solution was prepared using 1 OPD tablet+12 mL citrate/phosphate buffer (16 mM citric acid, 27 mM Na2HPO4) plus 5 μL 30% H2O2 per plate. Cells were washed three times with 1×KPL wash solution and developed with 100 μL/well OPD solution for 30 minutes in the dark at room temperature. The reaction was stopped with 100 μL/well of 2NH2SO4, and absorbance measured at A490 nm in a Victor^3 V 1420 multilabel counter (Perkin Elmer). The EC50 values for each compound were calculated from dose response curves from the resulting best-fit equations determined by Microsoft Excel and XLfit 4.1 software. The negative control for inhibition of virus replication was untreated HPC cells infected with the JFH-1 HCV virus strain. The negative ELISA control was untreated, uninfected HPC cells. The positive ELISA control was untreated HPC cells infected the JFH-1 HCV virus strain.

[8] = test system: genotype 1b replicon; assay: Antiviral activity in a genotype 1b replicon assay; assay type: cell-based, HCV; details: Hepatitis C virus; genotype 1b replicon assay as described in Example 32; read-out: EC50
Description: General procedure: Huh-7 cells containing HCV Con1 subgenomic replicon (GS4.1 cells) were grown in Dulbecco's Modified Eagle Medium (DMEM) supplemented with 10% fetal bovine serum (FBS), 2 mM L-glutamine, 110 mg/L sodium pyruvate, 1× non-essential amino acids, 100 U/mL penicillin-streptomycin, and 0.5 mg/mL G418 (Invitrogen). For dose-response testing, the cells were seeded in 96-well plates at 7.5×10^3 cells/well in a volume of 50 μL, and incubated at 37° C./5% CO2. Three hours after plating, 50 μL of ten 2-fold serial dilutions of compounds (highest concentration, 75 μM) were added, and cell cultures were incubated at 37° C./5% CO2 in the presence of 0.5% DMSO. Alternatively, compounds were tested at a single concentration of 15 μM. In all cases, Huh-7 cells lacking the HCV replicon served as negative control. The cells were incubated in the presence of compounds for 72 hr after which they were monitored for expression of the NS4A protein by enzyme-linked immunosorbent assay (ELISA). For this, the plates were then fixed for 1 min with acetone/methanol (1:1, v/v), washed twice with phosphate-buffered saline (PBS), 0.1% Tween 20, blocked for 1 hr at room temperature with TNE buffer containing 10% FBS and then incubated for 2 hr at 37° C. with the anti-NS4A mouse monoclonal antibody A-236 (ViroGen) diluted in the same buffer. After washing three times with PBS, 0.1% Tween 20, the cells were incubated 1 hr at 37° C. with anti-mouse immunoglobulin G-peroxidase conjugate in TNE, 10% FBS. After washing as described above, the reaction was developed with O-phenylenediamine (Zymed). The reaction was stopped after 30 min with 2 NH2SO4, and absorbance was read at 492 nm using Sunrise Tecan spectrophotometer. EC50 values were determined from the % inhibition versus concentration data using a sigmoidal non-linear regression analysis based on four parameters with Tecan Magellan software. When screening at a single concentration, the results were expressed as % inhibition at 15 μM.
as §2

[9] = Hepatitis C virus, Huh-7, 72 hr

## COc1ccc2c(O[C@H]3C[C@H]4C(=O)N(C)CCCC/C=C\[C@@H]5C[C@@]5(C(=O)NS(=O)(=O)C5CC5)NC(=O)N4C3)cc(-c3csc(C#N)n3)nc2c1Cl [Compound T1, (Z)-(4R,6S,15S,17S)-[17-[8-chloro-7-methoxy-2-(2-cyanothiazol-4-yl)quinolin-4-yloxy]-13-N-methyl-2,14-dioxo-1,3,13-triazatricyclo-[13.3.0.0]octadec-7-en-4-yl]carbonyl-(cyclopropyl)sulfonamide]
[1]
  CC50: 10 to 75 µM
[2]
  pIC50: > 6.00
[3]; 72 hr
  pEC50: > 6.00

## CCOC(=O)[C@@]12C[C@@H]1C=CCCCCN(C)C(=O)[C@@H]1C[C@@H](O[Si](C)(C)C(C)(C)C)CN1C(=O)N2
[4]; from C=CCCCCN(C)C(=O)[C@@H]1C[C@@H](O[Si](C)(C)C(C)(C)C)CN1C(=O)N[C@]1(C(=O)OCC)C[C@@H]1C=C, Hoveyda-Grubbs II (6%), 1.9 mM, 3.0 h
  ring closure, isolated yield: 51%

## COc1ccc2c(O[C@H]3C[C@H]4C(=O)N(C)CCCC/C=C\[C@@H]5C[C@@]5(C(=O)NS(=O)(=O)C5(C)CC5)NC(=O)N4C3)cc(-c3csc(C#N)n3)nc2c1Cl [Compound T2, (Z)-(4R,6S,15S,17S)-[17-[8-chloro-7-methoxy-2-(2-cyanothiazol-4-yl)quinolin-4-yloxy]-13-N-methyl-2,14-dioxo-1,3,13-triazatricyclo-[13.3.0.0]octadec-7-en-4-yl]carbonyl-(1-methylcyclopropyl)sulfonamide]
[1]
  CC50: > 75 µM
[2]
  pIC50: > 6.00
[3]; 72 hr
  pEC50: > 6.00

## COc1ccc2c(O[C@H]3C[C@H]4C(=O)N(C)CCCC/C=C\[C@@H]5C[C@@]5(C(=O)NS(=O)(=O)C5(C)CC5)NC(=O)N4C3)cc(-c3nc(C(F)(F)F)cs3)nc2c1C [Compound 68b, (Z)-(4R,6S,15S,17S)-[17-[7-methoxy-8-methyl-2-(4-trifluoromethythiazol-2-yl)quinolin-4-yloxy]-13-N-methyl-2,14-dioxo-1,3,13-triazatricyclo[13.3.0.0]octadec-7-en-4-yl]carbonyl(1-methylcyclopropyl)sulfonamide]
[5]
  CC50: > 75 µM
[6]
  CC50: 10 to 75 µM
[7]
  pEC50: > 6.00
[8]
  pEC50: > 6.00
[4]; from C=CCCCCN(C)C(=O)[C@@H]1C[C@H](Oc2cc(-c3nc(C(F)(F)F)cs3)nc3c(C)c(OC)ccc23)CN1C(=O)N[C@]1(C(=O)NS(=O)(=O)C2(C)CC2)C[C@H]1C=C, Zhan 1B (8%), 4.9 mM, 75.0 °C, 4.33 h
  ring closure, isolated yield: 30%
[2]
  pIC50: > 6.00
[3]; [9]
  pEC50: > 6.00

## COc1ccc2c(O[C@@H]3C[C@H]4C(=O)N(C)CCCCCC/C=C\[C@@H]5C[C@@]5(C(=O)NS(=O)(=O)C5(C)CC5)NC(=O)N4C3)cc(-c3nc(C(C)C)cs3)nc2c1C [Compound 76b]
[1]
  CC50: > 75 µM
[2]
  pIC50: > 6.00
[3]; 72 hr
  pEC50: 5.00 to 6.00

## COc1ccc2c(O[C@H]3C[C@H]4C(=O)N(C)CCCC/C=C\[C@@H]5C[C@@]5(C(=O)NS(=O)(=O)C5CC5)NC(=O)N4C3)cc(-c3nc(C(F)(F)F)cs3)nc2c1C [Compound 69b, (Z)-(4R,6S,15S,17S)-[17-[7-methoxy-8-methyl-2-(4-trifluoromethythiazol-2-yl)quinolin-4-yloxy]-13-N-methyl-2,14-dioxo-1,3,13-triazatricyclo[13.3.0.0]octadec-7-en-4-yl]carbonyl(cyclopropyl)sulfonamide]
[5]
  CC50: > 75 µM
[6]
  CC50: > 75 µM
[7]
  pEC50: > 6.00
[8]
  pEC50: > 6.00
[2]
  pIC50: > 6.00
[3]; [9]
  pEC50: > 6.00

## COc1ccc2c(O[C@@H]3C[C@H]4C(=O)N(C)CCCCC/C=C\[C@@H]5C[C@@]5(C(=O)NS(=O)(=O)C5(C)CC5)NC(=O)N4C3)cc(-c3nc(C(C)C)cs3)nc2c1C [Compound 76a, (Z)-(4R,6S,16S,18R)-[2,15-dioxo-18-[7-methoxy-8-methyl-2-(4-isopropylthiazol-2-yl)quinolin-4-yloxy]-14-N-methyl-1,3,14-triazatricyclo[14.3.0.0]nonadec-7-en-4-yl]carbonyl(1-methyl-cyclopropyl)sulfonamide]
[1]
  CC50: > 75 µM
[2]
  pIC50: 5.00 to 6.00
[3]; 72 hr
  pEC50: 5.00 to 6.00

## COc1ccc2c(O[C@H]3C[C@H]4C(=O)N(C)CCCCC=C[C@@H]5C[C@@]5(C(=O)NS(=O)(=O)C5CC5)NC(=O)N4C3)cc(-n3ccc(C(F)(F)F)n3)nc2c1Cl
[4]; from C=CCCCCN(C)C(=O)[C@@H]1C[C@H](Oc2cc(-n3ccc(C(F)(F)F)n3)nc3c(Cl)c(OC)ccc23)CN1C(=O)N[C@]1(C(=O)NS(=O)(=O)C2CC2)C[C@H]1C=C, Zhan 1B, 1.0 mM, 60.0 °C, 18.0 h
  ring closure, isolated yield: 40%

## C=Cc1csc(-c2cc(O[C@H]3C[C@H]4C(=O)N(C)CCCC/C=C\[C@@H]5C[C@@]5(C(=O)NS(=O)(=O)C5(C)CC5)NC(=O)N4C3)c3ccc(OC)c(Cl)c3n2)n1 [AH, (Z)-(4R,6S,15S,17S)-[17-[8-chloro-7-methoxy-2-(4-vinylthiazol-2-yl)quinolin-4-yloxy]-13-N-methyl-2,14-dioxo-1,3,13-triazatricyclo-[13.3.0.0]octadec-7-en-4-yl]carbonyl(1-methyl-cyclopropyl)sulfonamide]
[5]
  CC50: 10 to 75 µM
[2]
  pIC50: > 6.00
[3]; [9]
  pEC50: > 6.00
